The values below come from US11457627B2, “Plant activator” (IBIDEN CO., LTD., priority 2017, dated 2022).

In assay [1] the target is T1, PPARα (peroxisome proliferator-activated receptor α) (Homo sapiens, UniProt Q07869).
T1 sequence (Q07869 1-468): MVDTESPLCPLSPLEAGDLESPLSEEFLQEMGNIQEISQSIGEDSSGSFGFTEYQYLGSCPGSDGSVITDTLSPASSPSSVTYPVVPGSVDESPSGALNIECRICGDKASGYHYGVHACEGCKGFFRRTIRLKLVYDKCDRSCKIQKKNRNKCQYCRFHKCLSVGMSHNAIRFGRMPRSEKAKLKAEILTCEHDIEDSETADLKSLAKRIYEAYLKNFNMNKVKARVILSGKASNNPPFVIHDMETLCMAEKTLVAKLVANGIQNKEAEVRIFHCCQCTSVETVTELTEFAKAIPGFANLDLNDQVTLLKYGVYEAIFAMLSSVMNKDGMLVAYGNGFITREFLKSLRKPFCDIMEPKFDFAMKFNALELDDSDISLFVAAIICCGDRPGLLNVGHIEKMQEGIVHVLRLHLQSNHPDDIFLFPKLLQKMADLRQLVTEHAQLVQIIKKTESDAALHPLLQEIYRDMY
The following applies: known from prior art; cited from earlier work.

The test system of the next assay is PR2 gene. Description: Evaluation of the resistance gene expression (real-time PCR), PR2. The format is in vivo, Arabidopsis thaliana. Conditions: 0.012% in 0.15% potassium bicarbonate (FIG. 1) or 0.15% dipotassium hydrogenphosphate (FIG. 2) aqueous solution, watering of roots, RNA 24 hours after treatment. The method, then:
(§1) As Example 1, 0.15% potassium bicarbonate aqueous solution containing 0.012% of 13-oxo-9,11-octadecadienoic acid was prepared. (9Z,11E)-13-oxo-9,11-octadecadienoic acid (13-oxoODA, Cayman Chemical Company, INC.) was used as a 13-oxo-9,11-octadecadienoic acid. […]
(§2) Each of the aqueous solutions obtained from Examples 1 and 2 was applied using the watering to treat only the roots (underground part) of Arabidopsis thaliana plants grown in the soil. The total RNA was isolated 24 hours after treatment from each Arabidopsis thaliana plant treated with each of the aqueous solutions and from the untreated Arabidopsis thaliana plant as a control, and the cDNA was synthesized from the isolated total RNA, and then the expression levels of resistance genes, PR1, PR2 and PDF1.2 were analyzed by real-time PCR. […]

Another assay deals with PR1 gene. As to the kind of experiment: Evaluation of the resistance gene expression (real-time PCR), PR1. The following applies: 0.012% in 0.15% potassium bicarbonate (FIG. 1) or 0.15% dipotassium hydrogenphosphate (FIG. 2) aqueous solution, watering of roots, RNA 24 hours after treatment. Type of assay: in vivo, Arabidopsis thaliana. Here is the method: as §1, §2
(In general: Real-time PCR tracks product formation cycle by cycle.)

Assay [2] has as its system resistance genes, PR1, PR2 and PDF1.2. As to the kind of experiment: Resistance-inducing effect (expression of resistance genes overall). Type of assay: in vivo, Arabidopsis thaliana. Conditions: used instead of the oxo fatty acid. Here is the method: As Example 1, 0.15% potassium bicarbonate aqueous solution containing 0.012% of 13-oxo-9,11-octadecadienoic acid was prepared. (9Z,11E)-13-oxo-9,11-octadecadienoic acid (13-oxoODA, Cayman Chemical Company, INC.) was used as a 13-oxo-9,11-octadecadienoic acid. As Comparative Examples, 0.15% potassium bicarbonate aqueous solution containing 0.012% of a fatty acid analog, which is selected from 13-HPODE ((9Z,11E)-13-hydroperoxy-9,11-octadecadienoic acid, Cayman Chemical Company, INC.), 9-HPODE ((10Z,12E)-9-hydroperoxy-10,12-octadecadienoic acid, Cayman Chemical Company, INC.), 9-HPOTE ((10E,12Z,15Z)-9-hydroperoxy-10,12,15-octadecatrienoic acid, Cayman Chemical Company, INC.), 9-HOTE ((10E,12Z,15Z)-9-hydroxy-10,12,15-octadecatrienoic acid, Cayman Chemical Company, INC.), 13-HPOTE ((9Z, 11E, 15Z)-13-hydroperoxy-9,11,15-octadecatrienoic acid, Cayman Chemical Company, INC.), 13-HOTE ((9Z, 11E, 15Z)-13-hydroxy-9,11,15-octadecatrienoic acid, Cayman Chemical Company, INC.) and 12-OPDA (12-oxo-phytodienoic acid, Cayman Chemical Company, INC.), and 0.15% potassium bicarbonate aqueous solution containing 0.012% of an α-ketol fatty acid were prepared. An aqueous solution of α-ketol fatty acid was prepared according to the preparation method described below.
As Example 2, 0.15% dipotassium hydrogenphosphate aqueous solution containing 0.012% of 13-oxo-9,11-octadecadienoic acid was prepared. (9Z,11E)-13-oxo-9,11-octadecadienoic acid (13-oxoODA, Cayman Chemical Company, INC.) was used as a 13-oxo-9,11-octadecadienoic acid. […]
as §2

The subject of a further assay is PDF1.2 gene. As to the kind of experiment: Evaluation of the resistance gene expression (real-time PCR), PDF1.2. Type of assay: in vivo, Arabidopsis thaliana. Conditions: 0.012% in 0.15% potassium bicarbonate (FIG. 1) or 0.15% dipotassium hydrogenphosphate (FIG. 2) aqueous solution, watering of roots, RNA 24 hours after treatment. The method, then: as §1, §2

With `CCCCCC(=O)/C=C/C=C\CCCCCCCC(=O)O` [13-oxoODA, (9Z,11E)-13-oxo-9,11-octadecadienoic acid], the “agonist activity to activate transcription factor PPARα” value in assay [1] is listed as “strong agonist activity”. Further, the “expression level of resistance gene PR2” value with PR2 gene is given as “significantly higher expressions”. For the same compound, the “expression level of resistance gene PR1” value in the assay with PR1 gene is listed as “significantly higher expressions”.

As for `CC/C=C\CC(/C=C/C=C\CCCCCCCC(=O)O)OO` (centres unmarked) [13-HPOTE, (9Z, 11E, 15Z)-13-hydroperoxy-9,11,15-octadecatrienoic acid], in assay [2], the “resistance-inducing effect (effect on the expression of resistance-inducing traits)” value (from here on “resistance-inducing effect”) was “does not provide any resistance-inducing effect”.

With “hydroperoxy octadecatrienoic acid [HPOTE]”, the “resistance-inducing effect” value in assay [2] is listed as “is not obtained”.

In the case of hydroxy octadecatrienoic acid [HOTE], the “resistance-inducing effect” value in assay [2] was “is not obtained”.

Turning to hydroperoxyoctadecadienoic acid [HPODE], the “resistance-inducing effect” value in assay [2] was “is not obtained”.

Regarding `CC/C=C\C[C@@H]1C(=O)C=C[C@@H]1CCCCCCCC(=O)O` [12-OPDA, 12-oxo-phytodienoic acid], in the assay on PDF1.2 gene, the “expression level of resistance gene PDF1.2” value is “induced the expression”.
